According to patent US20090022915A1, “PARTICLE AND PREPARATION CONTAINING THE PARTICLE” (ONO PHARMACEUTICAL CO., LTD.,, priority 2005, published 2009):

Key:
[1] = Absorption test, pulmonary administration (2 mg/kg) of suspension; type: in vivo, rhesus monkeys
Experimental: 1. Pulmonary Administration (2 mg/kg)
Each of three male rhesus monkeys (mean body weight: 3.35 kg, age: 5) was anesthetized with ketamine and, after inserting a bronchial catheter and inserting an administration tube inside the catheter, the suspension produced in Preparation Example 1 was administered into the lung in a dose of 2 mg/kg. Before and after administration (0.25, 0.5, 1, 2, 3, 4, 6, and 8 hours), blood was collected from the cubital cutaneous vein and the obtained blood was centrifugally separated to obtain blood plasma, and then the concentration of the compound 1 was measured.
(§1) 5. Intravenous Administration (0.4 mg/kg)
(§2) The preparation produced in Comparative Example 3 was intravenously administered to each of three male cynomolgus monkeys (mean body weight: 4 kg, age: 5 to 6) in the concentration of 0.4 mg/kg. After administration, blood was collected from the cubital cutaneous vein and the obtained blood was centrifugally separated to obtain blood plasma, and then the concentration of the compound 1 was measured.
(§3) Also, a bioavailability (BA (%)) was calculated from the obtained results.
(§4) BA denotes a numerical value represented by “(AUC of pulmonary administration/dose of pulmonary administration)/(AUC of intravenous administration/dose of intravenous administration)×100” (%), and AUC denotes an area under the blood concentration time curve (ng·hr/ml).

[2] = Absorption test, pulmonary administration (0.2 mg/kg) of suspension; type: in vivo; details: cynomolgus monkey, plasma, suspension of Preparation Example 2, male cynomolgus monkeys, relative to intravenous 0.4 mg/kg, read-out: bioavailability (BA)
Experimental: 2. Pulmonary Administration (0.2 mg/kg)
Each of three male cynomolgus monkeys (mean body weight: 3.5 to 4.5 kg, age: 5 to 6) was anesthetized with ketamine and, after inserting a bronchial catheter and inserting an administration tube inside the catheter, the suspension produced in Preparation Example 2 was administered into the lung in a dose of 0.2 mg/kg. Before and after administration (0.25, 0.5, 1, 2, 3, 4, 8 and 12 hours), blood was collected from the cephalic vein and the obtained blood was centrifugally separated to obtain blood plasma, and then the concentration of the compound 1 was measured.
as §1, §2, §3, §4

[3] = Absorption test, oral administration (3 mg/kg) of microemulsion preparation; type: in vivo; details: rhesus monkey, plasma, preparation of Comparative Example 1, male rhesus monkeys, relative to intravenous 0.4 mg/kg, read-out: bioavailability (BA)
Experimental: 3. Oral Administration (3 mg/kg)
An oral administration tube was inserted through the mouth of each of three male rhesus monkeys (mean body weight: 3.5 kg, age: 3) and 5.25 mL (3 mg/kg) of the preparation produced in Comparative Example 1 was orally administrated. After administration (0.5, 1, 2, 4, and 6 hours), blood was collected from the cubital cutaneous vein and the obtained blood was centrifugally separated to obtain blood plasma, and then the concentration of the compound 1 was measured.
as §1, §2, §3, §4

[4] = Particle size measurement by laser diffraction particle size distribution analyzer; type: physicochemical; details: volume mean diameter
Experimental: The “mean particle size” means a particle size which represents a group of particles, when the group of particles is composed of a lot of particles each having a non-uniform size. The mean particle size includes, but is not limited to, weighting averages such as a number mean diameter, a length mean diameter, an area mean diameter, a volume mean diameter and the like, and means the volume mean diameter in the present invention.
For the measurement of the particle size, a hexane solution (20 mM) of Aerosol OT was used as a disperse medium. Particles to be measured were placed in a test tube and 1 mL of the disperse medium was added to obtain a suspension. The suspension was subjected to an ultrasonic treatment for one minute and the particle size was measured using a laser diffraction particle size distribution analyzer (SALD-2100: Shimadzu Corporation). In the case of measuring the particle size of particles in the suspension, an aqueous 0.1% Polysorbate 80 solution was used as the disperse medium in place of Aerosol OT.

Solubility in water = type: physicochemical

Compound: CC(C)(C)OC(=O)N1CSC[C@H]1C(=O)N[C@@H](CSCC1CCCCC1)C(=O)NC1CCN(Cc2ccccc2)CC1 [compound 1, Tert-butyl (4R)-4-{[((1R)-2-[(1-benzylpiperidin-4-yl)amino]-1-{[(cyclohexylmethyl)thio]methyl}-2-oxoethyl)amino]carbonyl}-1,3-thiazolidine-3-carboxylate]
- improvement in BA ([1]; pulmonary administration versus oral administration): ≥ 450 times
- bioavailability ([1]; rhesus monkey, plasma, pulmonary administration 2 mg/kg, suspension of Preparation Example 1, male rhesus monkeys, relative to intravenous 0.4 mg/kg, read-out: bioavailability (BA)): 93.4%
- bioavailability [2]: 103%
- bioavailability [3]: 0.2%
- Mean particle size (μm) [4]: about 120 μm
- solubility in water (Solubility in water): poorly soluble in water
